What was measured:
plasma testosterone = test: Phase 1 study of oral leuprolide acetate for 28 days, hormonal response (plasma testosterone); format: in vivo, human; settings: for Testosterone levels: healthy males
Source text: Twenty subjects were assigned to each dosing group.

plasma LH and FSH = settings: intermittent, but not continuous, administration; cited from earlier work
serum LH = settings: two stimulations with 25 mcg each on 3 consecutive days, 12 normally menstruating females; cited from earlier work

## CCNC(=O)[C@@H]1CCCN1C(=O)[C@H](CCCNC(=N)N)NC(=O)[C@H](CC(C)C)NC(=O)[C@@H](CC(C)C)NC(=O)[C@H](Cc1ccc(O)cc1)NC(=O)[C@H](CO)NC(=O)[C@H](Cc1c[nH]c2ccccc12)NC(=O)[C@H](Cc1c[nH]cn1)NC(=O)[C@@H]1CCC(=O)N1 [leuprolide acetate]
Plasma testosterone; Group A, 5 mg q.d. oral
  Testosterone levels relative to baseline: failed to raise the levels of testosterone above the baseline
Plasma testosterone; Group A, 5 mg q.d. oral, Day 2, baseline 453.25
  Testosterone levels: 452.45 ng/dL
Plasma testosterone; Group A, 5 mg q.d. oral, Day 3, baseline 453.25
  Testosterone levels: 406.25 ng/dL
Plasma testosterone; Group A, 5 mg q.d. oral, Day 4, baseline 453.25
  Testosterone levels: 384.70 ng/dL
Plasma testosterone; Group A, 5 mg q.d. oral, Day 5, baseline 453.25
  Testosterone levels: 430.55 ng/dL
Plasma testosterone; Group A, 5 mg q.d. oral, Day 6, baseline 453.25
  Testosterone levels: 434.55 ng/dL
Plasma testosterone; Group A, 5 mg q.d. oral, Day 7, baseline 453.25
  Testosterone levels: 413.75 ng/dL
Plasma testosterone; Group A, 5 mg q.d. oral, Day 8, baseline 453.25
  Testosterone levels: 405.85 ng/dL
Plasma testosterone; Group A, 5 mg q.d. oral, Day 9, baseline 453.25
  Testosterone levels: 358.8 ng/dL
Plasma testosterone; Group A, 5 mg q.d. oral, Day 10, baseline 453.25
  Testosterone levels: 369.80 ng/dL
Plasma testosterone; Group B, 5 mg b.i.d. oral
  Testosterone levels relative to baseline: higher than the baseline until Day 7
Plasma testosterone; Group B, 5 mg b.i.d. oral, Day 2, baseline 485.00
  Testosterone levels: 563.5 ng/dL
Plasma testosterone; Group B, 5 mg b.i.d. oral, Day 3, baseline 485.00
  Testosterone levels: 541.35 ng/dL
Plasma testosterone; Group B, 5 mg b.i.d. oral, Day 4, baseline 485.00
  Testosterone levels: 527.40 ng/dL
Plasma testosterone; Group B, 5 mg b.i.d. oral, Day 5, baseline 485.00
  Testosterone levels: 502.85 ng/dL
Plasma testosterone; Group B, 5 mg b.i.d. oral, Day 6, baseline 485.00
  Testosterone levels: 493.25 ng/dL
Plasma testosterone; Group B, 5 mg b.i.d. oral, Day 7, baseline 485.00
  Testosterone levels: 484.75 ng/dL
Plasma testosterone; Group B, 5 mg b.i.d. oral, Day 8, baseline 485.00
  Testosterone levels: 449.10 ng/dL
Plasma testosterone; Group B, 5 mg b.i.d. oral, Day 9, baseline 485.00
  Testosterone levels: 427.65 ng/dL
Plasma testosterone; Group B, 5 mg b.i.d. oral, Day 10, baseline 485.00
  Testosterone levels: 428.95 ng/dL
Plasma testosterone; Group B, 5 mg b.i.d., compared with Group C, 10 mg q.d.
  Elevation of plasma testosterone, comparison of dose groups: more significant elevation of plasma testosterone
Plasma testosterone; Group C, 10 mg q.d. oral
  Testosterone levels relative to baseline: higher than the baseline until Day 6
Plasma testosterone; Group C, 10 mg q.d. oral, Day 2, baseline 458.85
  Testosterone levels: 495.85 ng/dL
Plasma testosterone; Group C, 10 mg q.d. oral, Day 3, baseline 458.85
  Testosterone levels: 501.00 ng/dL
Plasma testosterone; Group C, 10 mg q.d. oral, Day 4, baseline 458.85
  Testosterone levels: 492.20 ng/dL
Plasma testosterone; Group C, 10 mg q.d. oral, Day 5, baseline 458.85
  Testosterone levels: 463.90 ng/dL
Plasma testosterone; Group C, 10 mg q.d. oral, Day 6, baseline 458.85
  Testosterone levels: 412.65 ng/dL
Plasma testosterone; Group C, 10 mg q.d. oral, Day 7, baseline 458.85
  Testosterone levels: 435.50 ng/dL
Plasma testosterone; Group C, 10 mg q.d. oral, Day 8, baseline 458.85
  Testosterone levels: 409.00 ng/dL
Plasma testosterone; Group C, 10 mg q.d. oral, Day 9, baseline 458.85
  Testosterone levels: 428.05 ng/dL
Plasma testosterone; Group C, 10 mg q.d. oral, Day 10, baseline 458.85
  Testosterone levels: 405.95 ng/dL

## gonadotropin releasing hormone (QHWSYGLRPG; Gonadoliberin-1; UniProt P01148 24-33, looked up) [GnRH, hormone that is secreted by the hypothalamus in a pulsating fashion, also known as LH-RH]
Plasma LH and FSH
  Plasma LH and FSH levels: increases in plasma LH and FSH levels
Serum LH
  Serum LH levels: Increases in serum LH levels
